Experimental data reported in US8535897B2, “Assays for non-apoptotic cell death and uses thereof” (The Trustees of Columbia University in the City of New York, priority 2006, dated 2013).

Columns and labels:
Format in all cases: cell-based, human
[1] = tested on: BJ-TERT/LT/ST/RASV12 cells; test: Nuclear morphology, fluorescence microscopy (Hoechst 33342)
Description: DNA was stained used Hoechst 33342.
To characterize the type of cell death induced by erastin, the effect of erastin was tested alongside camptothecin and staurosporine, which induce apoptotic cell death^39. Apoptosis is characterized by alterations in nuclear morphology, including pyknosis, karyorhexis and margination of chromatin^93. Nuclear morphology of camptothecin-treated and erastin-treated BJ-TERT/LT/ST/RAS^V12 cells was monitored using fluorescence microscopy. […] Apoptosis-inducing compounds (staurosporine and/or camptothecin) were tested alongside erastin in all of these assays to confirm the functionality of the assay. […] Therefore, in certain aspects the invention provides a genotype-selective anti-tumor agent which induces cell death via a non-apoptotic mechanism of oxidative cell death.

[2] = tested on: BJ-TERT/LT/ST/RASV12 cells; test: Annexin V staining; details: erastin 9 μM; camptothecin 1 μM
Description: The percentage of cells in the indicated M1 region were 6%, 6%, and 38% in untreated, erastin-treated (9 μM), and camptothecin-treated (1 μM), respectively.

PARP1 = PARP1 cleavage, western blot; details: BJ-TERT/LT/ST/RAS^V12; staurosporine 1 μM 6 h, camptothecin 1 μM 18 h, erastin 20 μg/mL
Description: BJ-TERT/LT/ST/RAS^V12 tumor cells were seeded in six-well dishes, incubated overnight at 37° C. with 5% CO2 and were treated with nothing (NT), staurosporine (ST, 1 μM) for 6 h, camptothecin (C, 1 μM) for 18 h, or erastin (20 μg/mL) for the indicated time, lysed and analyzed by western blot with an anti-PARP1 antibody. A relatively high concentration of erastin was used to ensure loss of PARP cleavage was not due to a concentration-dependent effect.
For western blots, medium was aspirated, and each dish was washed twice with 10 mL of ice-cold PBS. Cells were lysed with 200 μL of buffer (50 mM HEPES, 40 mM NaCl, 2 mM EDTA, 0.5% Triton-X, 1.5 mM sodium orthovanadate, 50 mM NaF, 10 mM Na Pyrophosphate, 10 mM Na B-glycerophosphate and protease inhibitor tablet, pH 7.4). […]

cytochrome c = test: Cytochrome c release from mitochondria; details: BJ-TERT/LT/ST/RAS^V12; staurosporine 1 μM or erastin 20 μg/mL for 6 h
Description: BJ-TERT/LT/ST/RAS^V12 cells were seeded in polystyrene 100×20 mm dishes in 10 ml media. After overnight incubation at 37° C. with 5% CO2, the cells were treated with nothing (NT), staurosporine (ST, 1 μM) or erastin (20 μg/mL) for 6 h, washed with 10 mL ice-cold PBS and lysed by passage through a 25-gauge needle (five strokes). Cell lysates were centrifuged at 1850 rpm for 5 min at 4° C. to remove the nuclear fraction. Mitochondria were removed from the soluble cytosolic fraction by pelleting at 10,000 rpm. Supernatant and mitochondrial pellets were solubilized in SDS-PAGE loading buffer and analyzed by western blot using anti-cytochrome c and pan-VDAC antibodies and IR-dye-linked secondary antibodies. […] Fluorescence was detected on a LI-COR Odyssey infrared scanner.
(a) BJ-TERT/LT/ST/RAS^V12 cells were treated with 9 μM erastin A1 for the indicated length of time, and the number of viable cells determined. […] Red fluorescence resulting from reduction of alamar blue was detected on a Victor3 platereader. […] (e) The number of viable cells was quantified under each condition using a hemacytometer. […] BJ-TERT/LT/ST/RAS^V12 (shown in histogram plots, and in line graph as dark diamonds) or BJ-TERT cells (shown in line graph only, light circles) were treated with 4.6-μM erastin A1 and the level of intracellular oxidative species determined. […]

SMILES | fragmented nuclei, of total nuclei ([1]; Hoechst 33342) | nuclear morphology ([1]; fluorescence microscopy) | percentage of cells in the M1 region (Annexin V staining) [2] [%] | PARP1 cleavage (PARP1) | cytochrome c release from mitochondria (cytochrome c)
CC[C@@]1(O)C(=O)OCc2c1cc1n(c2=O)Cc2cc3ccccc3nc2-1 [camptothecin] | 10%-20% | karyorhexis and margination of chromatin were visible | 38 | degraded | –
CN[C@@H]1C[C@H]2O[C@@](C)([C@@H]1OC)n1c3ccccc3c3c4c(c5c6ccccc6n2c5c31)C(=O)NC4 [staurosporine] | – | – | – | – | released from mitochondria
